Assays:
[1] = biological target: T1, α4β7 (adhesion of RPMI cells to CS-1) (Homo sapiens, UniProt P13612+P26010); test: RPMI-CS-1 cell adhesion assay; format: cell-based; details: adhesion of RPMI B-cell line (expresses α4β7) to CS-1 peptide coated microwells; read-out: RPMI-CS-1 IC50 value range
T1 construct: endogenous in cells
T1 sequence (P13612 34-1032): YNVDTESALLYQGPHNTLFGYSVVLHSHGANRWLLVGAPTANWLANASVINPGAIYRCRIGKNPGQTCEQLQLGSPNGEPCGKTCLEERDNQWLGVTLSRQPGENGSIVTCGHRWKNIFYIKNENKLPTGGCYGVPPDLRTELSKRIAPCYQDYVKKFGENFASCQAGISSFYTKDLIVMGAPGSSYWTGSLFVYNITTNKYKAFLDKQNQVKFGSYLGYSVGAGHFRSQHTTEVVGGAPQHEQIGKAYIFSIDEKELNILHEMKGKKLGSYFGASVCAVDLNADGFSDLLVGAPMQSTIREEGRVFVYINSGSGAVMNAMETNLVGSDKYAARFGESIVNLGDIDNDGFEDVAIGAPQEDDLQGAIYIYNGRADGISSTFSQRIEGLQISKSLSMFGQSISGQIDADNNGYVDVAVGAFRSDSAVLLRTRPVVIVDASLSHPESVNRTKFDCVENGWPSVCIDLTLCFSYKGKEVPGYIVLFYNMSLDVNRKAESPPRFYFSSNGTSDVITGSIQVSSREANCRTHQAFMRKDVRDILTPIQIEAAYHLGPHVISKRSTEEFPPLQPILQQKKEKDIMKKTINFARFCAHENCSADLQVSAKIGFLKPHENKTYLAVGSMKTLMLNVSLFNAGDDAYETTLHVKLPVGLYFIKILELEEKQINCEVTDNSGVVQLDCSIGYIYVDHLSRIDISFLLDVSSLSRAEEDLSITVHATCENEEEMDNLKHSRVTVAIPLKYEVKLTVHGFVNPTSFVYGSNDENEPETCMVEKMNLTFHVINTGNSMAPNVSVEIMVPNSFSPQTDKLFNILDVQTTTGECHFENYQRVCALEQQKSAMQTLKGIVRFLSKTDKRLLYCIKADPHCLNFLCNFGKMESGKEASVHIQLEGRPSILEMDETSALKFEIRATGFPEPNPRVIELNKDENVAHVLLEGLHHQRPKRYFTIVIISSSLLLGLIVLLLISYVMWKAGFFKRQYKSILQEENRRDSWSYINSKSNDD
T1 sequence (P26010 20-798): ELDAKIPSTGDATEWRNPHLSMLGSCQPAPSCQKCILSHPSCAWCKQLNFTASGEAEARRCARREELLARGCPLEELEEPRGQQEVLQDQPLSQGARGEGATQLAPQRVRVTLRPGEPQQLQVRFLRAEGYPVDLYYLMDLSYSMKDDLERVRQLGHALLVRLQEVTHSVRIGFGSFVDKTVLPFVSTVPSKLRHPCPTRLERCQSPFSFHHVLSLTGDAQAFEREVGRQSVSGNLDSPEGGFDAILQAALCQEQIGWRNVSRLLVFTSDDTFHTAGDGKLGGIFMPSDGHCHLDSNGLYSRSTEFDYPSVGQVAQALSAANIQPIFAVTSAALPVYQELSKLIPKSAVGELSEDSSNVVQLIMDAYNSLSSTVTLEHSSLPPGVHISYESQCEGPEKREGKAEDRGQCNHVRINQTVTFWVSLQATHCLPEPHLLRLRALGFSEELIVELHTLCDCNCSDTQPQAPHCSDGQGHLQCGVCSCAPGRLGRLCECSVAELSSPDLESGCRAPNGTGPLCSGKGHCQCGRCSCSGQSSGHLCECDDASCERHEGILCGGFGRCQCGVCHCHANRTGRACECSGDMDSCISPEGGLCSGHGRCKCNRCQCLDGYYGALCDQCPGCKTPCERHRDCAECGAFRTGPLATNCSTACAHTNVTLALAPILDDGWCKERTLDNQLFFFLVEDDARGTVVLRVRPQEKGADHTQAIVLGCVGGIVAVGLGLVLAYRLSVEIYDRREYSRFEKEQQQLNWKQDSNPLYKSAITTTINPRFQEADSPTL

IC50 [1] [nM] | melting point | Compound
< 300 | 220 to 221 °C | COc1cccc(OC)c1-c1ccc(C[C@H](NC(=O)c2c(Cl)cc(NC(N)=O)cc2Cl)C(=O)O)cc1 [Example 204]
< 300 | 197 to 198 °C | CNC(=S)Nc1cc(OC)c(-c2ccc(C[C@H](NC(=O)c3c(Cl)cccc3Cl)C(=O)O)cc2)c(OC)c1 [Example 162, N-(2,6-Dichlorobenzoyl)-4-[2,6-dimethoxy-4-(3-methylthioureido)phenyl]-L-phenylalanine]
< 300 | 182 to 184 °C | COc1cccc(OC)c1-c1ccc(C[C@H](NC(=O)c2c(Cl)cc(NC(=O)Nc3ccccc3C)cc2Cl)C(=O)O)cc1 [Example 202]
< 300 | 221 to 222 °C | COc1cc(N)cc(OC)c1-c1ccc(C[C@H](NC(=O)c2c(Cl)cccc2Cl)C(=O)O)cc1 [Example 157, N-(2,6-Dichlorobenzoyl)-4-(4-amino-2,6-dimethoxyphenyl)-L-phenylalanine]
< 300 | 227 to 229 °C | COc1cccc(OC)c1-c1ccc(C[C@H](NC(=O)c2c(Cl)cc(NC(C)=O)cc2Cl)C(=O)O)cc1 [Example 199]
< 300 | 221 to 222 °C (dec.) | COc1cccc(OC)c1-c1ccc(C[C@H](NC(=O)c2c(Cl)cc(N)cc2Cl)C(=O)O)cc1 [Example 206, N-(4-Amino-2,6-dichlorobenzoyl)-4-(2,6-dimethoxyphenyl)-L-phenylalanine]
< 300 | 219 to 221 °C | COc1cc(C(=O)N(C)C)cc(OC)c1-c1ccc(C[C@H](NC(=O)c2c(Cl)cccc2Cl)C(=O)O)cc1 [Example 166]

Further lines, the compound ahead of its results:

Compound | IC50 [1] [nM] | melting point
COc1cc(C(=O)NS(C)(=O)=O)cc(OC)c1-c1ccc(C[C@H](NC(=O)c2c(Cl)cccc2Cl)C(=O)O)cc1 [Example 173, N-(2,6-Dichlorobenzoyl)-4-[4-(methanesulfonylamino)carbonyl-2,6-dimethoxyphenyl]-L-phenylalanine] | < 300 | 277 to 278 °C
COc1cc(CN2CC[S+]([O-])CC2)cc(OC)c1-c1ccc(C[C@H](NC(=O)c2c(Cl)cccc2Cl)C(=O)O)cc1 [Example 263B, N-(2,6-Dichlorobenzoyl)-4-[2,6-dimethoxy-4-(thiomorpholinomethyl)phenyl]-L-phenylalanine S-oxide] | < 300 | 162.8 °C
CCCCC(O)c1cc(C[C@H](NC(=O)c2c(Cl)cccc2Cl)C(=O)O)ccc1-c1ccccc1OC (stereo partly drawn) [Example 342] | < 300 | 158 to 159 °C
COc1cccc(OCCF)c1-c1ccc(C[C@H](NC(=O)c2c(Cl)cccc2Cl)C(=O)O)cc1 [Example 228, N-(2,6-Dichlorobenzoyl)-4-[6-methoxy-2-(2-fluoroethoxy)phenyl]-L-phenylalanine] | < 300 | 206 to 207 °C
CNCc1cc(OC)c(-c2ccc(C[C@H](NC(=O)c3c(Cl)cccc3Cl)C(=O)O)cc2)c(OC)c1 [Example 242, N-(2,6-Dichlorobenzoyl)-4-[2,6-dimethoxy-4-[(methylamino)methyl]phenyl]-L-phenylalanine] | < 300 | 274 °C
CC(=O)c1cc(C[C@H](NC(=O)c2c(Cl)cccc2Cl)C(=O)O)ccc1-c1ccccc1 [Example 72, 3-Acetyl-N-(2,6-dichlorobenzoyl)-4-phenyl-L-phenylalanine] | 300 to 1000 | 109 to 111 °C
COc1ccc(C(N)=O)c(OC)c1-c1ccc(C[C@H](NC(=O)c2c(Cl)cccc2Cl)C(=O)O)cc1 [Example 326, N-(2,6-Dichlorobenzoyl)-4-(2,6-dimethoxy-3-carbamoylphenyl)-L-phenylalanine] | < 300 | 227 to 228 °C
COc1cc(CCN2CCCCC2)cc(OC)c1-c1ccc(C[C@H](NC(=O)c2c(Cl)cccc2Cl)C(=O)O)cc1 [Example 265, N-(2,6-Dichlorobenzoyl)-4-[2,6-dimethoxy-4-(2-piperidinoethyl)phenyl]-L-phenylalanine] | < 300 | 194.9 °C

Source: patent publication US6855843B2, “Inhibitors of α4 mediated cell adhesion” (Tanabe Seiyaku Co., Ltd., priority 1998, dated 2005)
